# Test results taken from PubChem BioAssay (NCI).
#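 Protocol summary: plate cells (96-well), add compound at 5 concentrations, incubate 48 h, interpolate endpoints linearly. GI50 marks 50% less growth. TGI is the concentration that stops growth completely.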
# Experiments:
# Test in all cases: growth of human tumour cells (NCI), 48 h
# [1] = system: UACC-257 melanoma
# [2] = system: ACHN renal
# [3] = system: T-47D breast
# [4] = system: RXF 393 renal
# [5] = system: OVCAR-5 ovarian
# [6] = system: BT-549 breast
# [7] = system: LOX IMVI melanoma
# [8] = system: SK-MEL-2 melanoma
# [9] = system: OVCAR-8 ovarian
# [10] = system: SF-539 CNS
# [11] = system: M14 melanoma
# [12] = system: NCI-H23 lung
# [13] = system: SNB-75 CNS
# [14] = system: A498 renal
# [15] = system: PC-3 prostate
# [16] = system: SF-295 CNS
# [17] = system: K-562 leukemia
# [18] = system: NCI/ADR-RES ovarian
# [19] = system: DU-145 prostate
# [20] = system: HL-60(TB) leukemia
# [21] = system: OVCAR-3 ovarian
# [22] = system: HCC-2998 colon
# [23] = system: HT29 colon
# [24] = system: HCT-15 colon
# [25] = system: SK-MEL-5 melanoma
# [26] = system: HOP-92 NSCLC
# [27] = system: 786-0 renal
# [28] = system: TK-10 renal
# [29] = system: SN12C renal
# [30] = system: MCF7 breast
# [31] = system: NCI-H226 lung
# [32] = system: OVCAR-4 ovarian
# [33] = system: SK-MEL-28 melanoma
# [34] = system: MDA-MB-231 breast
# [35] = system: CCRF-CEM leukemia
# [36] = system: SF-268 CNS
# [37] = system: IGROV1 ovarian
# [38] = system: HOP-62 NSCLC
# [39] = system: RPMI-8226 leukemia
# [40] = system: HCT-116 colon
# [41] = system: MDA-MB-435
# [42] = system: CAKI-1 renal
# [43] = system: SNB-19 CNS
# [44] = system: KM12 colon
# [45] = system: U251 CNS
# [46] = system: MOLT-4 leukemia
# [47] = system: A549 NSCLC
# [48] = system: MALME-3M melanoma
# [49] = system: NCI-H522 lung
# [50] = system: UACC-62 melanoma
# [51] = system: EKVX NSCLC
# [52] = system: HS 578T breast
# [53] = system: MDA-MB-468 breast
# [54] = system: SW-620 colon
compound,measurement,setting,value
Cc1ccc2c(c1)nc(-c1ccccc1)n2CC(=O)N=Nc1c(O)[nH]c2ccc(Br)cc12,GI50,[1],1.73 µM
same,TGI,[1],3.81 µM
same,GI50,[2],1.59 µM
same,TGI,[2],2.94 µM
same,GI50,[3],1.82 µM
same,TGI,[3],4.4 µM
same,GI50,[4],0.773 µM
same,TGI,[4],2.22 µM
same,GI50,[5],1.83 µM
same,TGI,[5],4.28 µM
same,GI50,[6],1.85 µM
same,TGI,[6],3.53 µM
same,GI50,[7],1.55 µM
same,TGI,[7],2.91 µM
same,GI50,[8],1.81 µM
same,TGI,[8],3.64 µM
same,GI50,[9],1.89 µM
same,TGI,[9],3.8 µM
same,GI50,[10],1.63 µM
same,TGI,[10],3.02 µM
same,GI50,[11],1.69 µM
same,TGI,[11],3.35 µM
same,GI50,[12],1.77 µM
same,TGI,[12],3.36 µM
same,GI50,[13],1.1 µM
same,TGI,[13],3.06 µM
same,GI50,[14],2 µM
same,TGI,[14],3.99 µM
same,GI50,[15],1.56 µM
same,TGI,[15],3.16 µM
same,GI50,[16],1.54 µM
same,TGI,[16],2.93 µM
same,GI50,[17],3.15 µM
same,TGI,[17],> 100 µM
same,GI50,[18],1.7 µM
same,TGI,[18],3.27 µM
same,GI50,[19],2.29 µM
same,TGI,[19],4.85 µM
same,GI50,[20],3.16 µM
same,TGI,[20],> 100 µM
same,GI50,[21],1.91 µM
same,TGI,[21],3.45 µM
same,GI50,[22],1.85 µM
same,TGI,[22],3.44 µM
same,GI50,[23],1.78 µM
same,TGI,[23],3.45 µM
same,GI50,[24],1.69 µM
same,TGI,[24],3.18 µM
same,GI50,[25],1.74 µM
same,TGI,[25],3.58 µM
same,GI50,[26],1.22 µM
same,TGI,[26],2.64 µM
same,GI50,[27],1.73 µM
same,TGI,[27],3.16 µM
same,GI50,[28],3.12 µM
same,TGI,[28],7.14 µM
same,GI50,[29],1.78 µM
same,TGI,[29],4.16 µM
same,GI50,[30],1.54 µM
same,TGI,[30],3.16 µM
same,GI50,[31],1.47 µM
same,TGI,[31],2.97 µM
same,GI50,[32],1.83 µM
same,TGI,[32],3.81 µM
same,GI50,[33],1.65 µM
same,TGI,[33],3.06 µM
same,GI50,[34],1.89 µM
same,TGI,[34],4.25 µM
same,GI50,[35],2.09 µM
same,TGI,[35],4.96 µM
same,GI50,[36],2.44 µM
same,TGI,[36],8.56 µM
same,GI50,[37],1.71 µM
same,TGI,[37],3.29 µM
same,GI50,[38],1.75 µM
same,TGI,[38],3.39 µM
same,GI50,[39],2.18 µM
same,TGI,[39],5.46 µM
same,GI50,[40],1.74 µM
same,TGI,[40],3.34 µM
same,GI50,[41],1.68 µM
same,TGI,[41],3.77 µM
same,GI50,[42],1.54 µM
same,TGI,[42],3.62 µM
same,GI50,[43],1.95 µM
same,TGI,[43],4.28 µM
same,GI50,[44],2.06 µM
same,TGI,[44],4.89 µM
same,GI50,[45],1.76 µM
same,TGI,[45],3.43 µM
same,GI50,[46],2.22 µM
same,TGI,[46],5.62 µM
same,GI50,[47],1.9 µM
same,TGI,[47],4.03 µM
same,GI50,[48],1.63 µM
same,TGI,[48],3.1 µM
same,GI50,[49],1.87 µM
same,TGI,[49],4.1 µM
same,GI50,[50],1.44 µM
same,TGI,[50],2.8 µM
same,GI50,[51],1.38 µM
same,TGI,[51],2.92 µM
same,GI50,[52],1.86 µM
same,TGI,[52],5.62 µM
same,GI50,[53],1.75 µM
same,TGI,[53],3.18 µM
same,GI50,[54],2.2 µM
same,TGI,[54],5.47 µM
